Measurements: ChEMBL document CHEMBL1649061, “Synthesis and pharmacological evaluation of N-(3-(1H-indol-4-yl)-5-(2-methoxyisonicotinoyl)phenyl)methanesulfonamide (LP-261), a potent antimitotic agent” (J Med Chem, 2011)
Activity calls are given as the source filed them. No cut-off for these calls is given here.

Columns and labels:
[1] = Oral bioavailability in Sprague-Dawley rat at 20 mg/kg; format: ADME, organism-based; conditions: in vivo
[2] = test system: HeLa; test: Cytotoxicity against human HeLa cells after 48 to 72 hrs by […] assay; format: functional, cell-based
[3] = Cytotoxicity against human NCI-ADR-RES expressing MDR1 cells after 48 to 72 hrs by […] assay; format: functional, cell-based
[4] = test system: MCF7; test: Cell cycle arrest in human MCF7 cells assessed as accumulation at G2/M phase after 24 hrs using propidium iodide staining by FACS analysis; format: functional, cell-based; conditions: MCF7, 24 h
[5] = test system: U-266; test: Cell cycle arrest in human U266 cells assessed as accumulation at G2/M phase after 24 hrs using propidium iodide staining by FACS analysis; format: functional, cell-based; conditions: U-266, 24 h
[6] = test system: NCI-H23; test: Cell cycle arrest in human NCI-H23 cells assessed as accumulation at G2/M phase after 24 hrs using propidium iodide staining by FACS analysis; format: functional, cell-based; conditions: NCI-H23, 24 h
[7] = test system: BXPC-3; test: Cell cycle arrest in human BxPC3 cells assessed as accumulation at G2/M phase after 24 hrs using propidium iodide staining by FACS analysis; format: functional, cell-based; conditions: BXPC-3, 24 h
[8] = test system: PC-3; test: Cell cycle arrest in human PC3 cells assessed as accumulation at G2/M phase after 24 hrs using propidium iodide staining by FACS analysis; format: functional, cell-based; conditions: PC-3, 24 h
[9] = test system: SW-620; test: Cytotoxicity against human SW620 cells after 48 to 72 hrs by […] assay; format: functional, cell-based
[10] = test system: A2780; test: Cytotoxicity against human A2780 cells after 48 to 72 hrs by […] assay; format: functional, cell-based
[11] = Inhibition of tubulin polymerization after 60 mins
[12] = test system: Jurkat; test: Cell cycle arrest in human Jurkat cells assessed as accumulation at G2/M phase after 24 hrs using propidium iodide staining by FACS analysis
[13] = test system: NCI-H522; test: Cell cycle arrest in human NCI-H522 cells assessed as accumulation at G2/M phase after 24 hrs using propidium iodide staining by FACS analysis; format: functional, cell-based; conditions: NCI-H522, 24 h
[14] = test system: SW-620; test: Cell cycle arrest in human SW620 cells assessed as accumulation at G2/M phase after 24 hrs using propidium iodide staining by FACS analysis; format: functional, cell-based; conditions: SW-620, 24 h
[15] = Displacement of [3H]colchicine from tubulin at 30 uM

SMILES	bioavailability [1] [%]	IC50 [2] [nM]	IC50 [3] [nM]	IC50 [4] [nM]	IC50 [5] [nM]	IC50 [6] [nM]	IC50 [7] [nM]	IC50 [8] [nM]	IC50 [9] [nM]	IC50 [10] [nM]	EC50 [11] [nM]	IC50 [12] [nM]	IC50 [13] [nM]	IC50 [14] [nM]	inhibition [15]
Oc1cc(Nc2cccnc2)cc(-c2cccc3[nH]ccc23)c1	24	–	–	–	–	–	–	–	–	–	–	–	–	–	–
COC(=O)Nc1cc(C(=O)c2ccnc(N3CCOCC3)c2)cc(-c2cccc3[nH]ccc23)c1	–	280	300	30	120	30	10	20	250	220	4600	–	–	–	–
CC(=O)Nc1cc(C(=O)c2cc(C)nc(N3CCOCC3)c2)cc(-c2cccc3[nH]ccc23)c1	–	490	1100	10	20	40	70	50	450	350	–	–	–	–	–
COc1ccc(S(=O)(=O)Nc2cccnc2Nc2ccc(O)cc2)cc1 [ABT-751]	–	270	290	–	–	–	–	–	190	170	–	160	–	–	–
COc1cc2c(c(OC)c1OC)-c1ccc(OC)c(=O)cc1[C@@H](NC(C)=O)CC2 [COLCHICINE]	–	–	–	–	10	13	16	33	–	–	2000	17	14	14	79%
CC(=O)O[C@H]1C(=O)[C@@]2(C)[C@H]([C@H](OC(=O)c3ccccc3)[C@]3(O)C[C@H](OC(=O)[C@H](O)[C@@H](NC(=O)c4ccccc4)c4ccccc4)C(C)=C1C3(C)C)[C@]1(OC(C)=O)CO[C@@H]1C[C@@H]2O [PACLITAXEL]	–	20	13000	–	–	–	–	–	30	10	–	–	–	–	–
CC[C@]1(O)C[C@H]2CN(CCc3c([nH]c4ccccc34)[C@@](C(=O)OC)(c3cc4c(cc3OC)N(C=O)[C@H]3[C@@](O)(C(=O)OC)[C@H](OC(C)=O)[C@]5(CC)C=CCN6CC[C@]43[C@@H]65)C2)C1 [VINCRISTINE]	–	–	–	–	–	–	–	–	–	–	2500	–	–	–	inactive
